Measurements taken from US8450286B2, “Method for treating cancers having high glucose requirements employing an SGLT2 inhibitor and compositions thereof” (Bristol-Myers Squibb Company, priority 2008, dated 2013).

Assays:
healthy subjects = healthy subjects taking 5, 20, 50 or 100 mg; versus known SGLT2 inhibitor GSK 869,682 (50, 100, 200 or 500 mg); FIG. 1
Experimental: The panel at the top of FIG. 1 is from a presentation by GSK in an analyst meeting, showing the amount of glucose excretion/day in healthy subjects taking 50, 100, 200 or 500 mg of GSK 869,682. The panel at the bottom is from study MB-102001, showing the amount of glucose excretion/day in healthy subjects taking 5, 20, 50 or 100 mg of compound Ia.

[1] = test system: subjects with type 2 diabetes; details: 14-day multiple ascending dose, compared to placebo, FIG. 2
Text: Results from the 24-hour glucose excretion are shown in FIG. 2 for all subjects in the MB-102003 study. The mean urine glucose is in the darker lines.

CCOc1ccc(Cc2cc([C@@H]3O[C@H](CO)[C@@H](O)[C@H](O)[C@H]3O)ccc2Cl)cc1 [compound Ia]
glucosuric effect: loss of calories in the urine (glucose excretion/day) (healthy subjects): significant loss of calories in the urine | 24-hour urine glucose excretion [1]: higher urine glucose excretion
